{"source": "paper PMC10056986", "about": "(Pharmaceuticals, 2023)", "key": {"[1]": {"target": "T1, Beta1 (Homo sapiens, UniProt P08588)", "T1 sequence (P08588 whole entry)": "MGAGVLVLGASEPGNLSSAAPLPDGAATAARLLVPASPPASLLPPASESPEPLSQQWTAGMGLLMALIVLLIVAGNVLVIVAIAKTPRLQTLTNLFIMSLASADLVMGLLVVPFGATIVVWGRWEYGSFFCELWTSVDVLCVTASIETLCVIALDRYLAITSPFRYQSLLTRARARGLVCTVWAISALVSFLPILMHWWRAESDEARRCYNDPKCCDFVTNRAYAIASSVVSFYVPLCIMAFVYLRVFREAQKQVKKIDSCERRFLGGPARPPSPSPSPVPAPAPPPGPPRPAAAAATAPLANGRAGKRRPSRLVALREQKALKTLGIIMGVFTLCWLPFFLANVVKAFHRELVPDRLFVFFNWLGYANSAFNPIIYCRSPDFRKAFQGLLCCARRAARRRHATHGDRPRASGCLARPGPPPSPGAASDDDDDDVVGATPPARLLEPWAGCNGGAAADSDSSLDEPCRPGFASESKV", "test": "cell-based"}, "[2]": {"target": "D2 (Homo sapiens, UniProt P14416)", "sequence (P14416 whole entry)": "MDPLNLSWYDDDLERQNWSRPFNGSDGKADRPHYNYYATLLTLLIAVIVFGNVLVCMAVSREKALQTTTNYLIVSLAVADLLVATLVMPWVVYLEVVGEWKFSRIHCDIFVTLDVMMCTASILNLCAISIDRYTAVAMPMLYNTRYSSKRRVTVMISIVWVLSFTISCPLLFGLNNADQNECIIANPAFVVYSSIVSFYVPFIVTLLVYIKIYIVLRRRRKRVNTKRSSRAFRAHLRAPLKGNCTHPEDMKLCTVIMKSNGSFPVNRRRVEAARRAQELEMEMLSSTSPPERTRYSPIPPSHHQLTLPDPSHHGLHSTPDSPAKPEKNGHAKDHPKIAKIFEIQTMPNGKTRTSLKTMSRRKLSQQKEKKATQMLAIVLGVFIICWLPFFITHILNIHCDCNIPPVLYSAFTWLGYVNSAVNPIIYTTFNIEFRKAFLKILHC", "test": "cell-based"}, "[3]": {"test": "in vitro", "conditions": "African green monkey"}, "[4]": {"test_system": "influenza A virus WSN/33 (H1N1)", "parameters": "species or system BALB/c mice", "conditions": "mouse, in vivo"}, "[5]": {"test_system": "EV71 Shenzhen/120F1/09", "test": "microbe, parasite or virus in culture", "format": "cell-based, human enterovirus 71", "conditions": "Enterovirus A, EV71, RD, read-out: EC50 for Virus"}, "[6]": {"target": "M3 (Homo sapiens, UniProt P20309)", "sequence (P20309 whole entry)": "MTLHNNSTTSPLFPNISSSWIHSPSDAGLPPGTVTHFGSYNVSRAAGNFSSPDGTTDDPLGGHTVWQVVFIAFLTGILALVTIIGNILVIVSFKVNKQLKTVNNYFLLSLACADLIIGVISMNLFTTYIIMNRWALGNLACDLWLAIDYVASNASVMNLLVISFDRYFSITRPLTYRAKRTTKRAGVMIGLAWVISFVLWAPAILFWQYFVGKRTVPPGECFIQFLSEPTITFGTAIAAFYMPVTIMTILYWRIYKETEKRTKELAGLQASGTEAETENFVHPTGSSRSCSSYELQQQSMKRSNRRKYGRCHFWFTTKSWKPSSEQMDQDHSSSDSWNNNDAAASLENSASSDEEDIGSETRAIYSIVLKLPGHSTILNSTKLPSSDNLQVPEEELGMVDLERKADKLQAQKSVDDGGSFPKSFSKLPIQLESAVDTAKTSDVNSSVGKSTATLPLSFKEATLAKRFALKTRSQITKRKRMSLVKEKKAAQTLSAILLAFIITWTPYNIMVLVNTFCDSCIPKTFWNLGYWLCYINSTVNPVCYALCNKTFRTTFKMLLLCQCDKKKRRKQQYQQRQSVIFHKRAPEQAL", "test": "cell-based"}, "[7]": {"target": "T1, Beta1", "test": "cell-based", "remark": "listed apart in the source"}, "[8]": {"target": "MINK (Homo sapiens, UniProt Q8N4C8)", "sequence (Q8N4C8 whole entry)": "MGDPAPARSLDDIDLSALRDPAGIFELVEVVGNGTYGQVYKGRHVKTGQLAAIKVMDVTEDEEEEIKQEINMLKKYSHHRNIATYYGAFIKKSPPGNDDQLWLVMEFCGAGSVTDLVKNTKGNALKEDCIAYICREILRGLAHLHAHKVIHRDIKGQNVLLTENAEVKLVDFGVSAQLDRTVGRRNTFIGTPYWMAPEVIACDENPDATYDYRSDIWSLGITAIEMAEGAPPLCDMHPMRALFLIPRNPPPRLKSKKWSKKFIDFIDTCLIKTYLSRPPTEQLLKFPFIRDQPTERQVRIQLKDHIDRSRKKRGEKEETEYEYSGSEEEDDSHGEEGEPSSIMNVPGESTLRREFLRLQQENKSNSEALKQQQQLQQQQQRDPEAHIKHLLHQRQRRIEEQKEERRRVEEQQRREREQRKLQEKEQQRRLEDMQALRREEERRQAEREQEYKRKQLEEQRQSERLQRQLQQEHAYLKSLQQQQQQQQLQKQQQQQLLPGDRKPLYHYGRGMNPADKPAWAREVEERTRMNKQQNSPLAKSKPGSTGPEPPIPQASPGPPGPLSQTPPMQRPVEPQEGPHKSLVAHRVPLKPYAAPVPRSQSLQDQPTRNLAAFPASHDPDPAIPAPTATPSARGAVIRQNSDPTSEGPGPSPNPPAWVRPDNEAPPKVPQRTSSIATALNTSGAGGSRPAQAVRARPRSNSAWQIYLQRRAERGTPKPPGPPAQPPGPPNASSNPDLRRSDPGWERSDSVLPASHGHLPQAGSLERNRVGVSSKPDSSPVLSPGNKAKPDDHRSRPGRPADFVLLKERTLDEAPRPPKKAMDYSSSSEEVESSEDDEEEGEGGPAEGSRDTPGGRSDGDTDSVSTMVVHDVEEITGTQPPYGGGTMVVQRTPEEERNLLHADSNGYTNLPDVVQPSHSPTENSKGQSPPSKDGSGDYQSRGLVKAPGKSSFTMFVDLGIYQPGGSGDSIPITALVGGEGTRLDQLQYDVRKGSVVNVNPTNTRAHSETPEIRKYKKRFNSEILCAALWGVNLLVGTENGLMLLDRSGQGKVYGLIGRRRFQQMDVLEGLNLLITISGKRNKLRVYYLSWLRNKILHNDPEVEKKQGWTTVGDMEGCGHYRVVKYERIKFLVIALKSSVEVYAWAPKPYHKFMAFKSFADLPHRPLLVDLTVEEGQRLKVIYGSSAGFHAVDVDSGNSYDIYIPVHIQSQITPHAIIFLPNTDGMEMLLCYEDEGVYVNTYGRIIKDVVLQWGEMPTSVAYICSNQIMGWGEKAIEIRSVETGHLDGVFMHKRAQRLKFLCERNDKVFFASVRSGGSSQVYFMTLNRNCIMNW", "test": "biochemical"}, "[9]": {"test_system": "A/PR/8/34 (H1N1)", "parameters": "species or system BALB/c mice", "conditions": "mouse, in vivo"}, "[10]": {"target": "PDK1 (Homo sapiens, UniProt O15530)", "sequence (O15530 whole entry)": "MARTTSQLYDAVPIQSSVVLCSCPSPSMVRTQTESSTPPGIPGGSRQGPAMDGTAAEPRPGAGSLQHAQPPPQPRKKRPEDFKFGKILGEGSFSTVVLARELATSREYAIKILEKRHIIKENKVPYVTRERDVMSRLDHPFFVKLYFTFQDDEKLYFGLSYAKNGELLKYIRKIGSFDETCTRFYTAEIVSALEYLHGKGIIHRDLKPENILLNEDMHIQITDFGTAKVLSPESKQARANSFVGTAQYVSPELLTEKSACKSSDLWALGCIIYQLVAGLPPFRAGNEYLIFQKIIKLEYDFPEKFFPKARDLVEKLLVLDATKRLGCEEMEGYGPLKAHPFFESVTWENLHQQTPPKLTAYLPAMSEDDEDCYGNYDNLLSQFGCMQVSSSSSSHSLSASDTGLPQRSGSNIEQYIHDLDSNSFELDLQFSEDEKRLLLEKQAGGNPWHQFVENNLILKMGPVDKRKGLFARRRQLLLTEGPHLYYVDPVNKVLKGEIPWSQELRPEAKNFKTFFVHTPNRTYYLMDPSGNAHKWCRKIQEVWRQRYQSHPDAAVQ", "test": "biochemical"}, "[11]": {"conditions": "10,000 nM, read-out: Inhibition at Maximum Concentration (%)"}}, "data": [{"smiles": "O=C(O)[C@H]1C2CCC(CC2)[C@@H]1Nc1nc(-c2n[nH]c3ncc(F)cc23)nc(C2CC2)c1F", "note": "[ZSP1273]", "values": [{"measurement": "IC50", "setting": "[1]", "result": "> 10", "unit": "µM"}, {"measurement": "inhibition at 10 µM", "setting": "[1]; [11]", "result": -22.7, "unit": "%"}, {"measurement": "EC50", "setting": "[2]", "result": "> 12", "unit": "µM"}, {"measurement": "Activity at Maximum Concentration (%)", "setting": "[2]; 12,000 nM", "result": "−0.06", "unit": "%"}, {"measurement": "CC50", "setting": "[3]", "result": "> 10", "unit": "µM"}, {"measurement": "animals died (of n = 8)", "setting": "[4]", "result": "one"}, {"measurement": "day on which body weight of surviving mice began to recover", "setting": "[4]", "result": 8, "unit": "days"}, {"measurement": "day on which weight of surviving mice increased gradually", "setting": "[4]", "result": 6, "unit": "th"}, {"measurement": "mice died (of n = 8)", "setting": "[4]", "result": "no mice died"}, {"measurement": "survival rate", "setting": "[4]", "result": 100, "unit": "%"}, {"measurement": "EC50", "setting": "[5]", "result": "> 10", "unit": "µM"}, {"measurement": "IC50", "setting": "[6]", "result": "> 10", "unit": "µM"}, {"measurement": "inhibition at 10 µM", "setting": "[6]; [11]", "result": -4.78, "unit": "%"}, {"measurement": "EC50", "setting": "[7]", "result": "> 12", "unit": "µM"}, {"measurement": "Activity at Maximum Concentration (%)", "setting": "[7]; 12,000 nM", "result": 0.54, "unit": "%"}, {"measurement": "IC50", "setting": "[8]", "result": "> 10", "unit": "µM"}, {"measurement": "lung index", "setting": "[9]", "result": "significantly decreased"}, {"measurement": "viral titers in the lung tissues", "setting": "[9]", "result": 0}, {"measurement": "IC50", "setting": "[10]", "result": "> 10", "unit": "µM"}]}]}
